Test results from ChEMBL document CHEMBL3885881, “DrugMatrix”.

Species: Rattus norvegicus
Assay: DrugMatrix - Regimen: Daily Repeat
Format: toxicity, organism-based, Sprague-Dawley
Parameters: regimen Daily Repeat, gender Male, age 6-8 weeks
Conditions: in vivo, po, route oral GAVAGE, vehicle .5 % CMC; for ABSOLUTE BASOPHIL / ABSOLUTE EOSINOPHIL / ABSOLUTE LYMPHOCYTE / ABSOLUTE MONOCYTE / ABSOLUTE SEGMENTED NEUTROPHIL / BASOPHIL / EOSINOPHIL / ERYTHROCYTE COUNT / HEMATOCRIT / HEMOGLOBIN / LEUKOCYTE COUNT / LYMPHOCYTE / MEAN CORPUSCULAR HEMOGLOBIN / MEAN CORPUSCULAR HEMOGLOBIN CONCENTRATION / MEAN CORPUSCULAR VOLUME / MONOCYTE / NEUTROPHIL / NUCLEATED RED BLOOD CELLS / PLATELET COUNT: tissue Blood; for ALANINE AMINOTRANSFERASE / ALBUMIN / ALKALINE PHOSPHATASE / ASPARTATE AMINOTRANSFERASE / BLOOD UREA NITROGEN / CARBON DIOXIDE / CHLORIDE / CHOLESTEROL / CREATINE PHOSPHOKINASE / CREATININE / GLUCOSE / LACTATE DEHYDROGENASE / LIPASE / PHOSPHORUS / POTASSIUM / SODIUM / TOTAL BILIRUBIN / TOTAL PROTEIN / URIC ACID: tissue Plasma
[1] = 580 mg/kg, 120 h, dose level High, time 5 day
[2] = […], 72 h, dose 2.4 mg/Kg, dose level Low, time 3 day
[3] = […], 120 h, dose 2.4 mg/Kg, dose level Low, time 5 day

SMILES: CN1C(=O)COc2c(C(=O)NC3CN4CCC3CC4)cc(Cl)cc21 (centres undefined) [AZASETRON]
- ABSOLUTE BASOPHIL [1]: 0 CELLS/uL
- ABSOLUTE EOSINOPHIL [1]: 63.33 CELLS/uL
- ABSOLUTE LYMPHOCYTE [1]: 14100 CELLS/uL
- ABSOLUTE MONOCYTE [1]: 291 CELLS/uL
- ABSOLUTE SEGMENTED NEUTROPHIL [1]: 979 CELLS/uL
- BASOPHIL [1]: 0%
- EOSINOPHIL [1]: 0.33%
- ERYTHROCYTE COUNT [1]: 6.34 x10E6/uL
- HEMATOCRIT [1]: 38%
- HEMOGLOBIN [1]: 15.07 G/DL
- LEUKOCYTE COUNT [1]: 15.43 x10E3/uL
- LYMPHOCYTE [1]: 91.67%
- MEAN CORPUSCULAR HEMOGLOBIN [1]: 23.8 pg
- MEAN CORPUSCULAR HEMOGLOBIN CONCENTRATION [1]: 39.67 G/DL
- MEAN CORPUSCULAR VOLUME [1]: 60 fL
- MONOCYTE [1]: 2%
- NEUTROPHIL [1]: 6%
- NUCLEATED RED BLOOD CELLS [1]: 0 /100WBC
- PLATELET COUNT [1]: 1316.67 x10E3/uL
- ALANINE AMINOTRANSFERASE [1]: 58.33 u/L
- ALBUMIN [1]: 4.3 G/DL
- ALKALINE PHOSPHATASE [1]: 295 u/L
- ASPARTATE AMINOTRANSFERASE [1]: 101.33 u/L
- BLOOD UREA NITROGEN [1]: 21.67 mg/dL
- CARBON DIOXIDE [1]: 24 mmol/L
- CHLORIDE [1]: 100.67 MEQ/L
- CHOLESTEROL [1]: 74.33 mg/dL
- CREATINE PHOSPHOKINASE [1]: 955.33 u/L
- CREATININE [1]: 0.23 mg/dL
- GLUCOSE [1]: 160 mg/dL
- LACTATE DEHYDROGENASE [1]: 604.33 u/L
- LIPASE [1]: 10.33 u/L
- PHOSPHORUS [1]: 12.33 mg/dL
- POTASSIUM [1]: 6.37 MEQ/L
- SODIUM [1]: 144.33 MEQ/L
- TOTAL BILIRUBIN [1]: 0.2 mg/dL
- TOTAL PROTEIN [1]: 6.2 G/DL
- URIC ACID [1]: 2.43 mg/dL
- ABSOLUTE BASOPHIL [2]: 0 CELLS/uL
- ABSOLUTE EOSINOPHIL [2]: 0 CELLS/uL
- ABSOLUTE LYMPHOCYTE [2]: 13884.67 CELLS/uL
- ABSOLUTE MONOCYTE [2]: 148 CELLS/uL
- ABSOLUTE SEGMENTED NEUTROPHIL [2]: 1867.33 CELLS/uL
- BASOPHIL [2]: 0%
- EOSINOPHIL [2]: 0%
- ERYTHROCYTE COUNT [2]: 5.62 x10E6/uL
- HEMATOCRIT [2]: 34.23%
- HEMOGLOBIN [2]: 13.3 G/DL
- LEUKOCYTE COUNT [2]: 15.9 x10E3/uL
- LYMPHOCYTE [2]: 87.33%
- MEAN CORPUSCULAR HEMOGLOBIN [2]: 23.7 pg
- MEAN CORPUSCULAR HEMOGLOBIN CONCENTRATION [2]: 38.87 G/DL
- MEAN CORPUSCULAR VOLUME [2]: 60.97 fL
- MONOCYTE [2]: 1%
- NEUTROPHIL [2]: 11.67%
- NUCLEATED RED BLOOD CELLS [2]: 0 /100WBC
- PLATELET COUNT [2]: 1219.67 x10E3/uL
- ALANINE AMINOTRANSFERASE [2]: 63.67 u/L
- ALBUMIN [2]: 4.13 G/DL
- ALKALINE PHOSPHATASE [2]: 374.67 u/L
- ASPARTATE AMINOTRANSFERASE [2]: 87.33 u/L
- BLOOD UREA NITROGEN [2]: 18.33 mg/dL
- CARBON DIOXIDE [2]: 30.67 mmol/L
- CHLORIDE [2]: 98.33 MEQ/L
- CHOLESTEROL [2]: 73 mg/dL
- CREATINE PHOSPHOKINASE [2]: 308.67 u/L
- CREATININE [2]: 0.17 mg/dL
- GLUCOSE [2]: 148.33 mg/dL
- LACTATE DEHYDROGENASE [2]: 222 u/L
- LIPASE [2]: 10 u/L
- PHOSPHORUS [2]: 11.57 mg/dL
- POTASSIUM [2]: 6.45 MEQ/L
- SODIUM [2]: 141.9 MEQ/L
- TOTAL BILIRUBIN [2]: 0.17 mg/dL
- TOTAL PROTEIN [2]: 5.83 G/DL
- URIC ACID [2]: 1.37 mg/dL
- ABSOLUTE BASOPHIL [3]: 0 CELLS/uL
- ABSOLUTE EOSINOPHIL [3]: 0 CELLS/uL
- ABSOLUTE LYMPHOCYTE [3]: 13149.67 CELLS/uL
- ABSOLUTE MONOCYTE [3]: 243.33 CELLS/uL
- ABSOLUTE SEGMENTED NEUTROPHIL [3]: 1007 CELLS/uL
- BASOPHIL [3]: 0%
- EOSINOPHIL [3]: 0%
- ERYTHROCYTE COUNT [3]: 5.6 x10E6/uL
- HEMATOCRIT [3]: 35%
- HEMOGLOBIN [3]: 14 G/DL
- LEUKOCYTE COUNT [3]: 14.4 x10E3/uL
- LYMPHOCYTE [3]: 91.33%
- MEAN CORPUSCULAR HEMOGLOBIN [3]: 25.1 pg
- MEAN CORPUSCULAR HEMOGLOBIN CONCENTRATION [3]: 40 G/DL
- MEAN CORPUSCULAR VOLUME [3]: 62.67 fL
- MONOCYTE [3]: 1.67%
- NEUTROPHIL [3]: 7%
- NUCLEATED RED BLOOD CELLS [3]: 0 /100WBC
- PLATELET COUNT [3]: 1192 x10E3/uL
- ALANINE AMINOTRANSFERASE [3]: 54.33 u/L
- ALBUMIN [3]: 4.1 G/DL
- ALKALINE PHOSPHATASE [3]: 274.67 u/L
- ASPARTATE AMINOTRANSFERASE [3]: 82 u/L
- BLOOD UREA NITROGEN [3]: 18.67 mg/dL
- CARBON DIOXIDE [3]: 28.67 mmol/L
- CHLORIDE [3]: 99.67 MEQ/L
- CHOLESTEROL [3]: 72 mg/dL
- CREATINE PHOSPHOKINASE [3]: 240 u/L
- CREATININE [3]: 0.19 mg/dL
- GLUCOSE [3]: 154.67 mg/dL
- LACTATE DEHYDROGENASE [3]: 169 u/L
- LIPASE [3]: 10 u/L
- PHOSPHORUS [3]: 10.83 mg/dL
- POTASSIUM [3]: 6.08 MEQ/L
- SODIUM [3]: 143.3 MEQ/L
- TOTAL BILIRUBIN [3]: 0.27 mg/dL
- TOTAL PROTEIN [3]: 6 G/DL
- URIC ACID [3]: 1.3 mg/dL
